According to publication PMC9138090, “Study on the Neuroprotective, Radical-Scavenging and MAO-B Inhibiting Properties of New Benzimidazole Arylhydrazones as Potential Multi-Target Drugs for the Treatment of Parkinson’s Disease” (Antioxidants, 2022):
Structures can show the parent of a compound that is named as a salt.

What was measured:
[1] = Fe(II)-induced oxidative damage of lecithin (TBA-RS); settings: 90 µmol/L, lecithin 1 mg/mL, FeCl2 0.1 mmol/L
Description: The classical method of determining the TBA-reactive substances at 532 nm as described by Asakawa and Matsushita has been used. Two groups of measurement compositions named controls and samples were prepared in phosphate buffer (K2HPO4/KH2PO4, pH 7.4) for each of the used substrates. Both of them contained equivalent concentrations of lecithin (1 mg/mL) or 2-deoxyribose (0.5 mmol/L) and FeCl2 (0.1 mmol/L). In the controls, the tested hydrazones have been omitted and in the samples the effect of the newly designed compounds at the concentrations indicated below the figures has been determined. The obtained samples were incubated at 37 °C for 30 min. The reaction was stopped, and after adding 0.5 mL 2.8% trichloroacetic acid and 0.5 mL of thiobarbituric acid, the samples were heated in boiling water for 20 min. The lecithin containing samples were centrifuged at 3000 rpm for 20 min and the supernatant was aspired out. The results have been presented as a percentage of the control sample, treated only with ferrous iron where we expected maximum oxidative damage under the described conditions.

rat brain synaptosomes [2] = assay: 6-OHDA-induced neurotoxicity, synaptosomal viability; format: cell-based; settings: for increase of synaptosomal viability vs. 6-OHDA treatment: 10 µM pretreatment, 6-OHDA 1 h
Description: (§1) Synaptosomes were prepared from brains of adult male Wistar rats. The brains were homogenized in 10 volume of cold buffer 1, containing 5 mM HEPES and 0.32 M sucrose (pH = 7.4). The brain homogenate was centrifuged twice at 1000× g for 5 min at 4 °C. The supernatant was collected and centrifuged 3 times at 10,000× g for 20 min at 4 °C. The pellet was re-suspended in ice-cold buffer 1. The synaptosomes were isolated by using Percoll reagent to prepare the gradient. Synaptosomes were re-suspended and incubated in buffer 2, containing 290 mM NaCl, 0.95 mM MgCl2 × 6H2O, 10 mM KCl, 2.4 mM CaCl2 × H2O, 2.1 mM NaH2PO4, 44 mM HEPES, and 13 mM D-glucose. Incubations were performed in a 5% CO2 + 95% O2 atmosphere. The content of synaptosomal protein was determined according to the method of Lowry et al. using bovine serum albumin as a standard.
Synaptosomal viability was measured by (3-(4,5)-dimethylthiazol-2-yl)-2,5-diphenyl tetrazolium bromide)-test, described by Mungarro-Menchaca et al. The synaptosomes were incubated with the compounds and then treated with (3-(4,5)-dimethylthiazol-2-yl)-2,5-diphenyl tetrazolium bromide) solution (0.5 mg/mL) for 1 h at 37 °C. After incubation they were centrifuged at 15,000× g for 1 min. The formed formazan crystals were dissolved in DMSO (Dimethyl sulfoxide). The extinction was measured spectrophotometrically at λ = 580 nm.
(§2) The metabolism and oxidation of dopamine cause reactive oxygen radicals and reactive quinones to be produced, which could lead to neurotoxicity and neurodegeneration. The synaptosomes were incubated with the compounds (10 µM) for 30 min and then 6-hydroxydopamnine (150 mmol/L) was used to induce neurotoxicity. […] After 1 h, they were centrifuged on a microcentrifuge for 1 min at 15,000 rpm. The precipitates were gently mixed with buffer B and glucose and centrifuged for a second time at 15,000 rpm for 1 min. After the second wash, buffer B and glucose were added to the precipitates.
(§3) In the presented experiments, an in vitro assessment of the possible antioxidant and neuroprotective effects of the newly synthetized compounds was performed in a model of 6-OHDA induced toxicity in rat brain synaptosomes. 6-OHDA is a neurotoxicant that structurally resembles dopamine and can be used in different in vivo and in vitro models for neurotoxicity. This model resembles the histological, biochemical, and physiological characteristics of neurodegenerative diseases such as Parkinson’s and Alzheimer’s disease. […] However, their uptake into brain synaptosomes is similar among primates and rodents and they are suitable in vitro models for PD. The main mechanism of 6-OHDA toxicity includes induction of oxidative stress. It undergoes auto-oxidation or metabolic degradation to p-quinone and produces hydrogen peroxide, superoxide, and hydroxyl radicals. The process causes lipid peroxidation, protein oxidation, and DNA oxidation and finally results in oxidative stress and mitochondrial dysfunction. Rat brain synaptosomes were pretreated with compounds 3e, 3h, 3i, 3m, melatonin, and rasagiline (10 μM); after that, the samples were subjected to 6-OHDA (150 mmol/L, 1 h). The protective effects were evaluated by measurement of synaptosomal viability (MTT-test) and GSH levels (Figure 3).

SH-SY5Y cells = assay: H2O2-induced oxidative stress model in SH-SY5Y cells; format: cell-based, human; settings: 90 min pre-incubation, H2O2 1 mM 15 min
Description: SH-SY5Y cells were seeded in 96-well plates at a density of 3.5 × 10^4/well and allowed to attach at the wells’ bottom overnight. […] Afterwards, the SH-SY5Y cells were washed with phosphate-buffered saline (PBS) to remove the extracellular amount of the test compounds. […] Then, the contents of all wells were changed with culture medium. After 24 h, the amount of attached viable cells was evaluated by MTT assay. […] Rasagiline and melatonin (Sigma-Aldrich Chemie GmbH) were used as reference compounds because of their well-established neuroprotective activity. […] The toxic mechanisms of hydrogen peroxide include the generation of reactive hydroxyl radicals and formation of products which could damage cellular lipids, proteins and DNA. […] For comparison, the effects of two compounds with well established antioxidant activity—rasagiline and melatonin—were also evaluated.

rat brain synaptosomes [3] = assay: 6-OHDA-induced neurotoxicity, GSH level; format: cell-based; settings: for restoration of GSH level vs. 6-OHDA treatment: 10 µM pretreatment, 6-OHDA 150 mmol/L 1 h
Description: as §1, §2, §3

[4] = MTT cytotoxicity on SH-SY5Y cells; format: cell-based, human; settings: human, SH-SY5Y neuroblastoma cells, MTT test, 24 h incubation; read-out: IC50, in vitro cytotoxicity on SH-SY5Y cells
Description: Human neuroblastoma cell line SH-SY5Y was obtained from the European Collection of Cell Cultures (ECACC, Salisbury, UK). The cells were maintained in 75 cm^2 flasks at 37 °C in a humidified atmosphere with 5% CO2 and cultured in RPMI 1640 medium, supplemented with 10% fetal bovine serum and 2 mM L-glutamine.
MTT (Sigma-Aldrich Chemie GmbH, Schnelldorf, Germany) assay is based on interaction between tetrazolium dye 3-(4,5-dimethylthiazol-2-yl)-2,5-diphenyltetrazolium bromide and succinic dehydrogenase in the living cells’ mitochondria. In this reaction, the formed purple formazan crystals indicate the presence of viable cells. SH-SY5Y cells were seeded in 96-well microplates at a density 2.5 × 10^4 cells/well and allowed to attach to the well surface at 37 °C in a humidified atmosphere with 5% CO2 (24 h). Different concentrations of compounds ([…]) were added to cells and incubated for 24 h. For each concentration, a set of at least 8 wells were used. After the treatment, the solution in each well was substituted with MTT (3-(4,5-dimethylthiazol-2-yl)-2,5-diphenyltetrazolium bromide) solution (0.5 mg/mL in culture medium). The microplates were further incubated for 3 h at 37 °C and the obtained formazan crystals were dissolved by 100 µL/well of DMSO. The absorbance was measured in a multiplate reader Synergy 2 (BioTek Instruments, Inc, Highland Park, Winooski, VT, USA) at 570 nm (690 nm for background absorbance).
An important step in the development of new pharmacologically active compounds is the establishment of their safety profile. An in vitro toxicity evaluation was carried out on the neuroblastoma cell line SH-SY5Y, which is a well-established model in neuroscience. The neuroblastoma SH-SY5Y are human derived cells with relatively homogeneous neuroblast-like structure. The cells express a dopamine-β-hydroxylase and tyrosine hydroxylase enzyme activity, specific types of human proteins and protein isoforms. The possible neurotoxic effects of the potential drug candidates were measured by cell viability assay (MTT-test). The IC50 values were used as a robust parameter for comparison. The test compounds were dissolved in DMSO and serially diluted in cell culture medium to achieve final concentrations ranging from 1 to 500 µM; the culture medium containing DMSO in the corresponding concentration was used as untreated controls. A concentration dependent effect on cell viability was observed after 24 h incubation.

Compound	sample/control absorbance ratio (% of the control), lecithin peroxidation [1] [%]	increase of synaptosomal viability vs. 6-OHDA treatment (rat brain synaptosomes [2]) [%]	cell viability protection vs. H2O2-treatment (SH-SY5Y cells; 1 µM) [%]	cell viability protection vs. H2O2-treatment (SH-SY5Y cells; 10 µM) [%]	cell viability protection vs. H2O2-treatment (SH-SY5Y cells; 50 µM) [%]	restoration of GSH level vs. 6-OHDA treatment (rat brain synaptosomes [3]) [%]	IC50 at 24 h [4] [µM]	reduction of synaptosomal vitality compared to untreated controls (rat brain synaptosomes [2]; 6-OHDA, 1 h) [%]	reduction of GSH level compared to untreated controls (rat brain synaptosomes [3]; 6-OHDA 150 mmol/L, 1 h) [%]
COc1ccc2[nH]cc(CCNC(C)=O)c2c1 [Melatonin]	75	68	20	29	52	70	> 500	–	–
NCCc1cc(O)c(O)cc1O [6-OHDA, 6-hydroxydopamine, reference compound]	–	–	–	–	–	–	–	56	50
C#CCN[C@@H]1CCc2ccccc21 [Rasagiline HCl, Rasagiline]	–	61	10	20	39	60	> 500	–	–
